# How the values were obtained:
# NF-κB = assay: EMSA of NF-κB binding to κB probe, nuclear extract of treated BxPC-3 cells; type: cell-based, human; details: BxPC-3 nuclear extract, 3 h
# Protocol: The gel shift assays were carried out according to the manufacturer's protocol (Panomics). Nuclear proteins (10 μg) from each sample were mixed with 10 ng biotinylated p65 double-stranded oligonucleotide probes (5′-[…]-3′ and its complement) (SEQ ID NO:9) in the presence of 1 μg Poly(I/C) DNA. The mixture was incubated at room temperature for 30 min. The binding complex was then resolved using a 6% polyacrylamide/glycerol gel in 0.5% Tris-borate-EDTA, transferred onto a nylon membrane, and fixed on the membrane by UV cross-linking The biotin-labeled probe was detected with streptavidin-horseradish peroxidase. Co-immunoprecipitation was performed as follows: about 500 μg of cell extracts were incubated overnight with 5 μg of agarose-conjugated anti-p65 (Santa Cruz Biotechnology) or anti-annexin 1 antibody (Santa Cruz, Calif.). The precipitate was washed five times with washing buffer (Santa Cruz Biotechnology), dissolved in 2× Laemmli buffer, boiled, and separated by SDS-PAGE and detected by Western blot analysis using ECL™ (Amersham Biosciences) as described above. Control experiments were performed by using rabbit IgG for p65 and mouse IgG2b for annexin 1, respectively (Santa Cruz Biotechnology). […]
# Bcl-xL = assay: NF-κB dependent gene (Bcl-xL) expression in epithelial cells of treated mice; type: in vivo; details: wild-type and Min mice
# Protocol: To assess whether these changes occur in vivo, the inventors studied isolated small intestine epithelial cells from Min mice and the corresponding wild type mice C57BL/6J (of which the Min mice are a congenic derivative) treated with NO-ASA 100 mg/kg or Dex 10 mg/kg daily for 7 days. Min (multiple intestinal neoplasia), a mutant allele of the murine APC (adenomatous polyposis coli) locus, encodes a nonsense mutation at codon 850. Heterozygous Min mutants spontaneously develop tumors in the intestine and represent a model of intestinal carcinogenesis (M. Lipkin et al., Ann. N.Y. Acad. Sci. 889:14-19 (1999); A. Moser, H. Pitot, W. Dove, Science 247:322-324 (1990)). The levels of annexin 1 were increased in both Min and wild-type mice treated with either NO-ASA or Dex (FIG. 7A and FIG. 8A). The induction of annexin 1 by NO-ASA or Dex was accompanied by the inhibition of NF-κB activity (FIGS. 7B and 8B).
substance,measurement,setting,value
nitric oxide-donating aspirin [NO-ASA],binding of NF-κB to the DNA probe (EMSA),NF-κB,inhibited the binding of NF-κB to the DNA probe in a concentration-dependent manner
same,binding of NF-κB to the DNA probe (EMSA) at 20 μM,NF-κB; 20 μM NO-ASA,substantial suppression of binding
same,NF-κB dependent gene expression (Bcl-xL),Bcl-xL,inhibited NF-κB dependent gene expression

# From patent US8691764B2, “Inhibitors of NF-κB activity” (The Research Foundation for the State University of New York, priority 2007, dated 2014)
